Measured values taken from US6127382A, “Amines substituted with a tetrahydroquinolinyl group an aryl or heteroaryl group and an alkyl group, having retinoid-like biological activity” (Allergan Sales, Inc., priority 1999, dated 2000).
pKi: −log10 of the molar value.

These compounds were tested against T1, RARβ (Homo sapiens, UniProt P10826) (assay: ligand binding assay, RARβ). Settings: read-out: RAR Bind Ki β.
T1 sequence (P10826 1-448 isoform P10826-2): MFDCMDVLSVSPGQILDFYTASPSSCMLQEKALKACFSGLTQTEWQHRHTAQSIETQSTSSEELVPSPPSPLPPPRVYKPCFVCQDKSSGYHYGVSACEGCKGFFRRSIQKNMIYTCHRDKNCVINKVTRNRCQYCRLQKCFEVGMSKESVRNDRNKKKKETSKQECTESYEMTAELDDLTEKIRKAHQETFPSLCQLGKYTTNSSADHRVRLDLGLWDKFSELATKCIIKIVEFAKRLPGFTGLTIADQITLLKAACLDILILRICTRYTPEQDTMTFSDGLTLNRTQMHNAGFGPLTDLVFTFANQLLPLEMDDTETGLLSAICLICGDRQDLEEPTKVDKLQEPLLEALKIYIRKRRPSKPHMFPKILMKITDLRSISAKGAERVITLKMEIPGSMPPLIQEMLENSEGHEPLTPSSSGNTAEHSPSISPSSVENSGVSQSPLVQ
Description: Other assays described below, measure the ability of the compounds of the present invention to bind to, and/or activate various retinoid receptor subtypes. When in these assays a compound binds to a given receptor subtype and activates the transcription of a reporter gene through that subtype, then the compound is considered an agonist of that receptor subtype. […] In the below described assays the ability of the compounds to bind to RARα, RARβ, RARγ, RXRα, RXRβ and RXRγ receptors, and the ability or inability of the compounds to activate transcription of a reporter gene through these receptor subtypes can be tested. […] However, some of the compounds of the invention may behave as retinoid antagonists or partial antagonists and/or as inverse agonists. Because of the complex distribution of the different retinoid receptors in various organs of the mammalian body partial agonists and partial antagonists and compounds which have the characteristics of both may lend themselves to particularly useful therapeutic applications and may avoid serious side effects of conventional retinoid drugs.
A holoreceptor transactivation assay and a ligand binding assay which measure the antagonist/agonist like activity of the compounds of the invention, or their ability to bind to the several retinoid receptor subtypes, respectively, are described in published PCT Application No. WO WO93/11755 (particularly on pages 30-33 and 37-41) published on Jun. 24, 1993, the specification of which is also incorporated herein by reference. A detailed experimental procedure for holoreceptor transactivations has been described by Heyman et al. Cell 68, 397-406, (1992); Allegretto et al. J. Biol. Chem. 268, 26625-26633, and Mangelsdorf et al. The Retinoids: Biology, Chemistry and Medicine, pp 319-349, Raven Press Ltd., New York, which are expressly incorporated herein by reference. The results obtained in this assay are expressed in EC50 numbers, as they are also in the chimeric receptor transactivation assay. The results of ligand binding assay are expressed in Kd numbers. (See Cheng et al. Biochemical Pharmacology Vol. 22 pp 3099-3108, expressly incorporated herein by reference.)
Table 1 discloses the activity of certain exemplary compounds of the invention in the above-described chimeric receptor transactivation assay, holoreceptor transactivation assay and a ligand binding assays. Particularly, the transactivation data pertaining to RAR receptors were obtained in the chimeric assay, and the data pertaining to transactivation of RXR receptors were obtained in the holoreceptor transactivation assay.
`CCN(c1ccc(C(=O)O)cc1)c1ccc2c(c1)C(C)(C)CC(=O)N2C(C)C` [Compound 6, 4-[(1-Isopropyl-4,4-dimethyl-2-oxo-1,2,3,4-tetrahydroquinolin-6-yl)ethylamino]benzoic Acid] gave a pKi of under 4.52.
Compound `CC(C)N1CCC(C)(C)c2cc(N(C)c3ccc(C(=O)O)cc3)ccc21` [Compound 10, 4-[(1-Isopropyl-4,4-dimethyl-1,2,3,4-tetrahydroquinolin-6-yl)methylamino]benzoic Acid] has a pKi of under 5.00.
Compound `CCN(c1ccc(C(=O)O)cc1)c1ccc2c(c1)C(C)(C)CCN2C(C)C` [Compound 12, 4-[(1-Isopropyl-4,4-dimethyl-1,2,3,4-tetrahydroquinolin-6-yl)ethylamino]benzoic acid] has a pKi of 5.10.
`CC(C)CCN(c1ccc(C(=O)O)cc1)c1ccc2c(c1)C(C)(C)CCN2C(C)C` [Compound 14, 4-[(1-Isopropyl-4,4-dimethyl-1,2,3,4-tetrahydroquinolin-6-yl)(3-methylbutyl)amino]-benzoic Acid] gave a pKi of 5.11.
`Cc1cc2c(cc1N(C)c1ccc(C(=O)O)cc1)C(C)(C)CCN2C(C)C` [Compound 22, 4-[(1-Isopropyl-4,4,7-trimethyl-1,2,3,4-tetrahydroquinolin-6-yl)methylamino]benzoic acid] was tested, and the pKi was under 5.00.
With `CCN(c1ccc(C(=O)O)cc1)c1cc2c(cc1C)N(C(C)C)CCC2(C)C` [Compound 24, 4-[(1-Isopropyl-4,4,7-trimethyl-1,2,3,4-tetrahydroquinolin-6-yl)ethylamino]benzoic acid] the pKi was under 5.00.
In the case of `Cc1cc2c(cc1N(CC1CC1)c1ccc(C(=O)O)cc1)C(C)(C)CCN2C(C)C` [Compound 26, 4-[(1-Isopropyl-4,4,7-trimethyl-1,2,3,4-tetrahydro-quinolin-6-yl)(cyclopropylmethyl)amino]benzoic acid], the pKi was 4.96.
`CCN(c1ccc(C(=O)O)cc1)c1ccc2c(c1)N(C(C)C)CCC2(C)C` [Compound 38, 4-[(1-Isopropyl-4,4-dimethyl-1,2,3,4-tetrahydroquinolin-7-yl)ethylamino]benzoic acid] was tested, and the pKi was under 5.00.
`CC(C)CN(c1ccc(C(=O)O)cc1)c1ccc2c(c1)N(C(C)C)CCC2(C)C` [Compound 39, 4-[(1-Isopropyl-4,4-dimethyl-1 2,3,4-tetrahydroquinolin-7-yl)isobutylamino]benzoic acid] gave a pKi of under 5.00.
`CC(C)N1CCC(C)(C)c2ccc(N(CC3CC3)c3ccc(C(=O)O)cc3)cc21` [Compound 40, 4-[(1-Isolpropyl-4,4-dimethyl-1,2,3,4-tetrahydroquinolin-7-yl)(cylopropylmethyl)amino]benzoic acid] gave a pKi of 4.62.
